Measured values from article PMC9283466, “In silico identification of two peptides with antibacterial activity against multidrug-resistant Staphylococcus aureus” (NPJ Biofilms and Microbiomes, 2022).
In brackets after ≈: the same amount, converted by molar mass. Read-outs that look alike come from different tables or passages of the source.

How the values were obtained:
[1] = tested on: LPS-driven NF-kB activation, eLUCidate Raw 264.7 NF-kB reporter cell line; test: Anti-inflammatory activity, NF-kB luciferase reporter; assay type: cell-based, murine; details: 10 ng/ml LPS from E. coli, 6 h
Procedure: (§1) The inhibitory activity of HG2, HG4 and comparator compounds against LPS and LTA was assessed using eLUCidate™ Raw 264.7 NF-kB reporter cell line (AMSBIO) as previously described. The eLUCidate NF-kB reporter cell line is a stably transfected Raw 264.7 cell line which expresses the Renilla luciferase reporter gene under the transcriptional control of the NF-kB response element, a key transcription factor involved in immune and inflammatory responses. This reporter cell line has been used to measure the induction of various toll-like receptors (TLR) by ligands, including LPS and LTA, therefore providing an effective way to evaluate inhibitors of their activations. Briefly, cells were grown and maintained following the manufacturer’s instructions in Dulbecco’s modified essential medium (DMEM) supplemented with 10% fetal calf serum (FCS), 1% L-glutamine, 1% antibiotics (Invitrogen) and containing 3 µg/ml of puromycin (Sigma-Aldrich, UK). To test the inhibitory activity of HG2 and HG4 on LPS or LTA-driven NF-kB activation, eLUCidate™ Raw 264.7 cells grown on 75 cm^2 flasks were detached using trypsin-EDTA solution (Thermofisher, UK) and seeded into 96-well cell culture plates (Greiner Bio-one, UK) at ~25,000 cells per well (counted using Mallasez’s chamber). The next day, wells were emptied, and cells were exposed to optimal concentrations of LPS or LTA determined from preliminary experiments, (i.e. 10 ng/ml of LPS from E. coli or 10 µg/ml of LTA from S. aureus (Invivogen, UK)) in the presence of increasing concentrations of HG2 or HG4 (from 0 to 500 µg/ml, serial 1:2 dilutions). Pyrrolidine dithiocarbamate (PDTC, 100 µM) and polymyxin B (PMB, 100 µM) (Sigma-Aldrich, UK) were used as positive controls based on their well-known activity as anti-inflammatory molecules and blockers/neutralisers of LPS and LTA, respectively. Importantly, all steps were performed using non-pyrogenic plastics and RNase/DNase molecular biology tips to limit the risk of the presence of a trace of LPS/LTA. After 6 h incubation at 37 °C and 5% CO2, wells were emptied, and the cells were treated with 70 µl of ice-cold PBS containing 1% Triton X-100. After 10 min incubation on ice under orbital shaking at 200 rpm, 50 µL of cell lysates were collected and transferred into white 96-well luminescence plates (Dominique Dutscher) already containing 100 µL of Renilla luciferase substrate (Yelen, France). Luminescence signals of the wells were immediately measured using a microplate reader (Biotek Synergy Mx, UK). The luminescence values were expressed as a percentage of control inflammation corresponding to values obtained after treatment with LPS or LTA in the absence of an inhibitor. The IC50 values of PDTC, PMB, HG2 or HG4 on LPS or LTA-mediated inflammation (i.e. the concentration of molecule causing a reduction of 50% of the luciferase’s induction caused by LPS or LTA) were calculated using GraphPad® Prism 7 software.

[2] = tested on: LTA-driven NF-kB activation, eLUCidate Raw 264.7 NF-kB reporter cell line; test: as above; assay type: cell-based, murine; details: 10 µg/ml LTA from S. aureus, 6 h
Procedure: as §1

[3] = tested on: S. aureus RN4220; test: MIC, broth microdilution; assay type: cell-based, Staphylococcus aureus; details: sensitive
Procedure: (§2) To determine the antimicrobial activity of the new antimicrobial peptides, HG2 and HG4, their minimum inhibitory concentrations (MICs) were determined by broth microdilution method[51] in cation adjusted Mueller Hinton broth (MHB) following the International Organisation for Standardisation (ISO) 20776-1 standard for MIC testing using a final bacterial inoculum of 5 × 10^5 CFU/ml[52]. […] The peptides dissolved in sterile distilled water were added to bacteria culture and incubated overnight at appropriate conditions. The MICs of the peptides and comparator antibiotics were recorded after 18–24 h. The minimum bactericidal concentrations (MBCs) were also determined and were taken as the lowest concentration of the antimicrobial that prevented the growth of bacterial cells after the subculture of cells (from MIC treatment) onto antibiotic-free media.

[4] = tested on: P. aeruginosa PA01; test: microbe, parasite or virus in culture; assay type: cell-based, Pseudomonas aeruginosa
Procedure: as §2

[5] = tested on: Sal. typhimurium SL1344; test: microbe, parasite or virus in culture; assay type: cell-based, Salmonella enterica serovar Typhimurium
Procedure: as §2

[6] = tested on: E. coli K12; test: microbe, parasite or virus in culture; assay type: cell-based, Escherichia coli
Procedure: as §2

[7] = tested on: S. aureus ATCC 33591; test: microbe, parasite or virus in culture; assay type: cell-based, Staphylococcus aureus; details: Staphylococcus aureus, ATCC 33591 / MRSA
Procedure: as §2

[8] = tested on: S. aureus EMRSA-15; test: microbe, parasite or virus in culture; assay type: cell-based, Staphylococcus aureus
Procedure: as §2

[9] = tested on: S. aureus USA300 BAA-1717; test: microbe, parasite or virus in culture; assay type: cell-based, Staphylococcus aureus; details: Staphylococcus aureus, BAA-1717 / MRSA / USA300
Procedure: as §2

[10] = tested on: Ent. faecalis JH2-2; test: microbe, parasite or virus in culture; assay type: cell-based, Enterococcus faecalis
Procedure: as §2

[11] = tested on: L. monocytogenes NCTC 11994; test: microbe, parasite or virus in culture; assay type: cell-based, Listeria monocytogenes
Procedure: as §2

[12] = tested on: MRSA USA300 cells; test: Time-kill kinetics; assay type: cell-based, Staphylococcus aureus; details: 3x MIC, comparator antibiotics, time not stated
Procedure: The bactericidal activity of HG2, HG4 and comparator antimicrobial compounds was assessed using exponential-phase cultures[14] of MRSA USA300 grown in MHB (1 × 10^6-8 CFU/ml). […] Samples were taken at different time points, serially diluted and inoculated onto MH agar plates using the spread plate technique. After overnight incubation, the colony-forming units per millilitre of cell culture (CFU/ml) was calculated. Experiments were performed in quadruplicates.

[13] = tested on: K. pneumoniae 518842; test: microbe, parasite or virus in culture; assay type: cell-based, Klebsiella pneumoniae; details: K. pneumoniae 518842; CTX-M
Procedure: as §2

[14] = tested on: K. pneumoniae 526903; test: microbe, parasite or virus in culture; assay type: cell-based, Klebsiella pneumoniae; details: K. pneumoniae 526903; sensitive
Procedure: as §2

[15] = tested on: K. pneumoniae ATCC 700603; test: microbe, parasite or virus in culture; assay type: cell-based, Klebsiella pneumoniae; details: K. pneumoniae ATCC 700603; SHV-18
Procedure: as §2

[16] = tested on: K. pneumoniae NCTC 13442; test: microbe, parasite or virus in culture; assay type: cell-based, Klebsiella pneumoniae; details: K. pneumoniae NCTC 13442; OXA-48
Procedure: as §2

[17] = tested on: A. baumannii (IMI, MER resistant; strain ID not given); test: microbe, parasite or virus in culture; assay type: cell-based, Acinetobacter baumannii; details: A. baumannii, no strain ID, MER
Procedure: as §2

[18] = tested on: A. baumannii 515722; test: microbe, parasite or virus in culture; assay type: cell-based, Acinetobacter baumannii; details: A. baumannii 515722; sensitive
Procedure: as §2

[19] = tested on: A. baumannii 515785; test: microbe, parasite or virus in culture; assay type: cell-based, Acinetobacter baumannii; details: A. baumannii 515785; OXA-23, OXA-50
Procedure: as §2

[20] = tested on: A. baumannii 515908; test: microbe, parasite or virus in culture; assay type: cell-based, Acinetobacter baumannii; details: A. baumannii 515908; sensitive
Procedure: as §2

[21] = tested on: P. aeruginosa (CF) AMT0060; test: microbe, parasite or virus in culture; assay type: cell-based, Pseudomonas aeruginosa; details: P. aeruginosa (CF) AMT0060
Procedure: as §2

[22] = tested on: P. aeruginosa (CF) C3719; test: microbe, parasite or virus in culture; assay type: cell-based, Pseudomonas aeruginosa; details: P. aeruginosa (CF) C3719
Procedure: as §2

[23] = tested on: P. aeruginosa (CF) LES400; test: microbe, parasite or virus in culture; assay type: cell-based, Pseudomonas aeruginosa; details: P. aeruginosa (CF) LES400
Procedure: as §2

[24] = tested on: P. aeruginosa; test: microbe, parasite or virus in culture; assay type: cell-based, Pseudomonas aeruginosa; details: P. aeruginosa; Supplementary Table 5
Procedure: as §2

[25] = tested on: Sal. typhimurium; test: microbe, parasite or virus in culture; assay type: cell-based, Salmonella enterica serovar Typhimurium; details: Sal. typhimurium; Supplementary Table 5
Procedure: as §2

[26] = tested on: E. coli; test: microbe, parasite or virus in culture; assay type: cell-based, Escherichia coli; details: E. coli; Supplementary Table 5
Procedure: as §2

[27] = tested on: EMRA-15; test: microbe, parasite or virus in culture; assay type: cell-based, Staphylococcus aureus; details: EMRA-15; Supplementary Table 5
Procedure: as §2

[28] = tested on: S. aureus; test: microbe, parasite or virus in culture; assay type: cell-based, Staphylococcus aureus; details: S. aureus; Supplementary Table 5
Procedure: as §2

[29] = tested on: Ent. faecalis; test: microbe, parasite or virus in culture; assay type: cell-based, Enterococcus faecalis; details: Ent. faecalis; Supplementary Table 5
Procedure: as §2

[30] = tested on: List. monocytogenes; test: microbe, parasite or virus in culture; assay type: cell-based, Listeria monocytogenes; details: List. monocytogenes; Supplementary Table 5
Procedure: as §2

S=C(S)N1CCCC1 [PDTC, Pyrrolidine dithiocarbamate, reference compound]
IC50 ([1]; Mus musculus, RAW264.7, read-out: IC50, LPS-mediated inflammation): 10.7 ± 1.2 µg/mL
IC50 ([2]; Mus musculus, RAW264.7, read-out: IC50, LTA-mediated inflammation): 10.8 ± 1.29 µg/mL

CN[C@H](CC(C)C)C(=O)N[C@H]1C(=O)N[C@@H](CC(N)=O)C(=O)N[C@H]2C(=O)N[C@H]3C(=O)N[C@H](C(=O)N[C@H](C(=O)O)c4cc(O)cc(O)c4-c4cc3ccc4O)[C@H](O)c3ccc(c(Cl)c3)Oc3cc2cc(c3O[C@@H]2O[C@H](CO)[C@@H](O)[C@H](O)[C@H]2O[C@H]2C[C@](C)(N)[C@H](O)[C@H](C)O2)Oc2ccc(cc2Cl)[C@H]1O [Vancomycin]
MIC ([3]; Staphylococcus aureus, read-out: MIC): 1 µg/mL (≈ 0.69 µM)
MIC ([4]; Pseudomonas aeruginosa, PA01): 64 µg/mL (≈ 44.2 µM)
MIC ([5]; Salmonella enterica, TYPHIMURIUM): 256 µg/mL (≈ 177 µM)
MIC ([6]; Escherichia coli, K12): 128 µg/mL (≈ 88.3 µM)
MIC [7]: 2 µg/mL (≈ 1.38 µM)
MIC ([8]; Staphylococcus aureus, MRSA): 2 µg/mL (≈ 1.38 µM)
MIC [9]: 2 µg/mL (≈ 1.38 µM)
MIC ([10]; Enterococcus faecalis, JH22): 64 µg/mL (≈ 44.2 µM)
MIC ([11]; Listeria monocytogenes, NCTC11994): 64 µg/mL (≈ 44.2 µM)
reduction in viable cells (time-kill) [12]: ≥ 2 log10 CFU/ml

polymyxin B [reference compound]
MIC [3]: 256 µg/mL
MIC [13]: 2 µg/mL
MIC [14]: 4 µg/mL
MIC [15]: 2 µg/mL
MIC [16]: 8 µg/mL
MIC [17]: 0.25 µg/mL
MIC [18]: 0.25 µg/mL
MIC [19]: 0.5 µg/mL
MIC [20]: 0.5 µg/mL
MIC [21]: 0.5 µg/mL
MIC [22]: 1 µg/mL
MIC [23]: 1 µg/mL
MIC ([4]; P. aeruginosa PA01): 2 µg/mL
Minimum inhibitory Concentrations MICs [24]: 1.95 µg/mL
MIC ([5]; Sal. typhimurium SL1344): 2 µg/mL
Minimum inhibitory Concentrations MICs [25]: 1.95 µg/mL
MIC ([6]; E. coli K12): 2 µg/mL
Minimum inhibitory Concentrations MICs [26]: 1.95 µg/mL
Minimum inhibitory Concentrations MICs [27]: 250 µg/mL
MIC ([8]; S. aureus EMRSA-15, resistances MRSA, Cip): 256 µg/mL
Minimum inhibitory Concentrations MICs [28]: 250 µg/mL
MIC ([10]; Ent. faecalis JH2-2): 32 µg/mL
Minimum inhibitory Concentrations MICs [29]: 31.25 µg/mL
MIC ([11]; L. monocytogenes NCTC 11994): 64 µg/mL
Minimum inhibitory Concentrations MICs [30]: 62.5 µg/mL
IC50, LPS-mediated inflammation [1]: 62.26 ± 4.01 µg/mL
IC50, LTA-mediated inflammation [2]: 61.34 ± 3.47 µg/mL
